Legend:
[1] = system: Triticum aestivum cv. Hereward leaf segments; experiment: Senescence bioassay on detached wheat leaf segments (chlorophyll retention); conditions: for maximum effective concentration: 96 h in the dark; for activity (%) [10^−4 mol · l^−1 BAP = 100%]: at maximum effective concentration
Description: Seeds of winter wheat, Triticum aestivum cv. Hereward, were washed under running water for 24 hours and then sown on vermiculite soaked with Knop's solution. They were placed in the growth chamber at 25° C. with a 16/8 h light period at […]. After 7 days, the first leaf was fully developed and the second leaf had started to grow. A tip section of the first leaf, approximately 35 mm long, was removed from 5 seedlings and trimmed slightly to a combined weight of 100 mg. The basal ends of the five leaf tips were placed in the wells of a microtiter polystyrene plate containing 150 μL of the tested derivative solution each. The entire plate was inserted into a plastic box lined with paper tissues soaked in distilled water to prevent leaf sections from drying out. After 96 h incubation in the dark at 25° C., the leaves were removed and chlorophyll extracted by heating at 80° C. for 10 min in 5 mL of 80% ethanol (v/v). The sample volume was then restored to 5 mL by the addition of 80% ethanol (v/v). The absorbance of the extract was recorded at 665 nm. In addition, chlorophyll extracts from fresh leaves and leaf tips incubated in deionised water were measured. The results are means of five replicates and the entire test was repeated twice. […] The compounds to be tested were dissolved in dimethylsulfoxide (DMSO) and the solution brought up to 10^−3 M with distilled water. […] The activity obtained for 10^−4 M of BAP was postulated as 100%. Kinetin was used as the second standard. Newly prepared compounds generally exceeded the efficiency of standard (BAP) by 10% of its activity (Tab. 5).

caspase-3 activity = experiment: UVB-induced caspase-3 activity in NHDF (Ac-DEVD-AMC); assay type: cell-based, human
Excerpt: Normal human dermal fibroblasts (NHDF) were used as an in vitro model. Cells were isolated from tissue specimens obtained from healthy patients undergoing plastic surgery at the Department of Plastic and Aesthetic Surgery (University Hospital Olomouc). The use of skin tissue was in accordance with the Ethics Committee of the University Hospital and Faculty of Medicine and Dentistry, Palacky University, Olomouc and all patients signed written informed consent. Fibroblasts were used between the 2nd and 4th passage. For all experiments the fibroblasts were seeded onto 6-well plates at a density of 0.5×10^5 cells/cm^2 of cultivation medium (DMEM supplemented with fetal calf serum (10%, v/v), penicillin (100 mg/ml) and streptomycin (100 U/ml)).
Test compounds included 6-(tetrahydrofuran-2-ylmethylamino)-9-(tetrahydrofuran-2-yl)purine and positive control (rosmarinic acid). […] Intensity of UVB radiation was evaluated before each irradiation by UVB-meter. […] After 4 hours (37° C., 5% CO2) cell damage was evaluated by analysis of caspase-3 activity.
Caspase-3 activity was evaluated by specific substrate (Ac-DEVD-AMC). […] Fluorescence was measured at (400/505 nm) after 1 hour incubation (37° C., dark). Protein content was analyzed spectrophotometrically by Bradford protein assay (INFINITE M200, Tecan, Switzerland). […]

SMILES	maximum effective concentration [1]	activity (%) [10^−4 mol · l^−1 BAP = 100%] [1] [%]	effect on UVB-induced activity of caspase-3 (in words) (caspase-3 activity; UVB, NHDF)	effect on caspase-3 activity in non-irradiated cells (in words) (caspase-3 activity; non-irradiated NHDF, 2.5-20 μmol/l)
c1nc(NCC2CCCO2)c2ncn(C3CCCO3)c2n1 (centres unmarked) [Compound 1, 6-(tetrahydrofuran-2-ylmethylamino)-9-(tetrahydrofuran-2-yl)purine]	10^−4 mol · l^−1	125 ± 9	decreased	did not showed negative effect
c1csc(CNc2ncnc3c2ncn3C2CCCO2)c1 (centres unmarked) [Compound 9, 6-(thiophen-2-ylmethylamino)-9-(tetrahydrofuran-2-yl)purine]	10^−4 mol · l^−1	112 ± 5		
Clc1nc(NCC2CCCO2)c2ncn(C3CCCO3)c2n1 (centres unmarked) [Compound 20, 2-chloro-6-(tetrahydrofuran-2-ylmethylamino)-9-(tetrahydrofuran-2-yl)purine]	10^−4 mol · l^−1	127 ± 5		

Source: US10774084B2, “Adenine derivatives and their use as UV-photoprotective agents” (UNIVERZITA PALACKEHO V OLOMOUCI, priority 2015, dated 2020)
